From US20200085853A1, “TARGETING NR3B1 FOR TREATMENT OF NASH” (University of Southern California, priority 2018, published 2020)

Tests used:
[1] = tested on: oxygen consumption rate (OCR); assay: Seahorse XF24 metabolic flux analysis (oxygen consumption rate); format: cell-based
Experimental: Cells were cultured on XF24 plates during experiment. The mitochondrial inhibitors, oligomycin (1 μM), FCCP (0.1 μM) and Rotenone (1 μM) were added after four measurements of basal OCR as described previously.^14 • RNA Isolation, Reverse Transcription and Quantitative PCR

RXR = RXR agonist treatment, expression of lipogenic and triglyceride biosynthetic genes; format: cell-based; settings: FIG. 6A
Description: To address how NR3B may inhibit the lipogenic and triglyceride synthesis process, the RNA-seq data for SREBP and Chrebp, two transcriptional factors directly involved in the biosynthesis of lipid was explored. […] RXR binds to both PPARg and LXR and has the potential to regulate lipid metabolism through its interaction with these two nuclear receptors. It was explored whether RXR activation alters the expression of the lipogenic and triglyceride biosynthetic genes.

| Structure (SMILES) | effect on the NR3B-PA induced change of OCR ([1]; co-treatment with NR3B-PA, FIG. 6B) | expression of AGPAT3 (RXR) | expression of DGAT2 (RXR) | expression of Fasn (RXR) | basal oxygen consumption rate (OCR) ([1]; 0.1 μM, FIG. 2A) | maximal oxygen consumption rate (OCR) ([1]; 0.1 μM, FIG. 2A) |
| --- | --- | --- | --- | --- | --- | --- |
| C=C(c1ccc(C(=O)O)cc1)c1cc2c(cc1C)C(C)(C)CCC2(C)C [Bexarotene] | did not block | induction | induction | induction | – | – |
| COc1cc(/C=C(\C#N)C(=O)Nc2nnc(C(F)(F)F)s2)ccc1OCc1ccc(C(F)(F)F)cc1C(F)(F)F [XCT 790] | – | – | – | – | similar | similar |
